PMC9538944, “In vitro biotransformation assays using fish liver cells: Comparing rainbow trout and carp hepatocytes” (Frontiers in Toxicology, 2022)

System: rainbow trout hepatocytes
Assay: In vitro hepatocyte clearance assay (substrate depletion), trout
Assay type: in vitro ADME, Oncorhynchus mykiss
Conditions: 15 °C, 4 h, 2 µM MXC / 0.5 µM BaP, mean over in vitro runs
Procedure: Isolation of hepatocytes from liver of rainbow trout was performed by a two-step collagenase perfusion procedure which is well established for rainbow trout ([Nabb et al., 2006]; [Fay et al., 2015]). […] In previous studies with common carp, an in vitro digestion method was used to isolate hepatocytes ([Cowan-Ellsberry et al., 2008]; [Dyer et al., 2008]). Here, we adopted the method of [Segner et al. (1993)] who used a two-step collagenase perfusion of carp liver via the Arteria coeliaca for cell isolation. With the perfusion method, the percentage of pancreatic cells in the final cell suspension is typically <5% ([Vogt and Segner, 1997]). Cryopreservation and thawing procedures applied for hepatocytes of both species were based on the standard protocols for rainbow trout ([Fay et al., 2014a]; [Fay et al., 2014b]). The viability of the cells was determined by means of the trypan blue exclusion assay and counting of stained and non-stained cells in a hemocytometer. The carp and trout primary hepatocyte suspensions used in the present study were aliquots of the in vitro preparations used in a previous study investigating the in vitro metabolite patterns of MXC ([Bischof et al., 2016]). A detailed description of the methods and materials used for the preparation of hepatocyte suspensions including the procedures for cell isolation, cryopreservation, and thawing, as well as cell counting, diluting to the target cell concentration, and heat-inactivating can therefore be taken from [Bischof et al. (2016)] and from the cited publications.
The in vitro hepatocyte clearance experiments were performed in a substrate depletion approach according to the methods previously published by [Fay et al. (2014b)]. These methods are in accordance with the procedures provided in the OECD TG 319A on the performance of in vitro hepatocyte clearance assays. In the present study, several in vitro runs with MXC and BaP using suspensions of either freshly isolated or cryopreserved hepatocytes from common carp and rainbow trout were carried out. For the different in vitro runs non-pooled hepatocytes were used, i.e. hepatocytes from different individual fish. For each run, triplicates of live cells (3 × 1 ml at nominal 2 × 10^6 cells/mL) and heat-inactivated cells as controls were dosed with the test chemical dissolved in acetonitrile (ACN) at the targeted concentration (2 µM for MXC and 0.5 µM for BaP) and incubated for 4 h at 15 °C (trout) or 20 °C (carp). MXC and BaP reactions were run side by side in the same in vitro run using the same hepatocyte suspensions. […]
Measured values of parent chemical concentration were log10-transformed and plotted against time. […]

[1] = cryopreserved trout hepatocytes
[2] = freshly isolated trout hepatocytes

SMILES	Mean in vitro intrinsic clearance (CLin vitro, int) [1] [mL/h/10^6 cells]	Mean in vitro intrinsic clearance (CLin vitro, int) [2] [mL/h/10^6 cells]
c1ccc2c(c1)cc1ccc3cccc4ccc2c1c34 [BaP, benzo[a]pyrene]	0.243	0.251
COc1ccc(C(c2ccc(OC)cc2)C(Cl)(Cl)Cl)cc1 [MXC, methoxychlor]	0.283	0.250
